Data set [1] addresses T1, human androgen receptor (AR) (Homo sapiens, UniProt P10275).
T1 construct: expressed in transfected cells; host or cells: mouse myoblast C2C12 cells, transiently co-transfected
T1 sequence (P10275 1-920): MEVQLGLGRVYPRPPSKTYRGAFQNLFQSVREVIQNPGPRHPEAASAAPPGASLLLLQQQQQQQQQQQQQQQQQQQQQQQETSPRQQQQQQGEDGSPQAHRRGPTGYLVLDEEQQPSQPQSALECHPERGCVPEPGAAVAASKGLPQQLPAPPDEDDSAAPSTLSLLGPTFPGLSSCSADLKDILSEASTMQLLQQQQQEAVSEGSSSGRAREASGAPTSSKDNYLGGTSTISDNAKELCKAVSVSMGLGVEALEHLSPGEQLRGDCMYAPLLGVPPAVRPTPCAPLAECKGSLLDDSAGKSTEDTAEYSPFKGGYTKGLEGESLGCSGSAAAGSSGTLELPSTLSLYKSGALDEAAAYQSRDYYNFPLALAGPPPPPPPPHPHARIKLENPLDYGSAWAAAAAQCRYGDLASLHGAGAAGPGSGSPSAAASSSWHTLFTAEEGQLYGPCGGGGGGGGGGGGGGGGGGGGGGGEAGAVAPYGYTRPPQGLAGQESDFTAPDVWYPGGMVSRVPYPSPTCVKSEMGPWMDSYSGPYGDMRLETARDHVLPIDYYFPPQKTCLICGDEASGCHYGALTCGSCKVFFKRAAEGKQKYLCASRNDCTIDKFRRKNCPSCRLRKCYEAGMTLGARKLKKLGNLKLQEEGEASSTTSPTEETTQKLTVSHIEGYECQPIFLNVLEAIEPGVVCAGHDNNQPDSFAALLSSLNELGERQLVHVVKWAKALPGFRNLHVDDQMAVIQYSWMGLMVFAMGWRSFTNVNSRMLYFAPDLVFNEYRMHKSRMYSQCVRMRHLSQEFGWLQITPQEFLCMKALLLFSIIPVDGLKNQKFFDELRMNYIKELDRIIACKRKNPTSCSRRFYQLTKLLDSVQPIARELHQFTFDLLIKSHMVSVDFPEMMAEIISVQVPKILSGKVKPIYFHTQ
The data set is described as follows: C2C12 AR/ARE reporter assay. It is filed as cell-based. In short, it runs like this: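 Mouse C2C12 myoblasts co-transfected with AR/ARE reporter were plated in charcoal-stripped serum and treated for 48 h with compound from about 0.01 nM to 10 μM. Luciferase activity gave EC50 by 4-parameter logistic fit. Efficacy is expressed as % of maximal stimulation by 10 nM methyltrienolone.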
For orientation: Reporter assays use an easily measured gene product as a stand-in for the process of interest.

For data set [2], the target named is T2, human AR (androgen receptor) (Homo sapiens, UniProt P10275).
T2 construct: expressed in transfected cells; host or cells: 293 cells (293-AR lysate)
T2 sequence (P10275 1-920): T1 sequence (P10275 1-920)
Kind of data set: Steroid hormone nuclear receptor binding assay, AR binding. In short, it runs like this: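 Competition binding with lysates of 293 cells overexpressing human AR, [3H]-methyltrienolone tracer, compounds from about 0.01 nM to 10 μM, overnight at 4 °C; non-specific binding set with 500 nM methyltrienolone. Bound tracer counted by scintillation after charcoal-dextran separation; IC50 converted to Ki by Cheng-Prusoff using Kd from saturation binding.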

Setting [3] is: C2C12, read-out: C2C12 % Efficacy.
The mark [4] stands for this setting: C2C12 AR/ARE reporter assay, average of n trials, read-out: C2C12 % Efficacy.
[5] abbreviates: C2C12 AR/ARE reporter assay, average of n trials, read-out: C2C12 EC50.
The mark [6] stands for this setting: average of n trials, read-out: AR binding Ki.

A word on the EC50: it is the concentration giving half of the maximal effect. Broadly, the Ki is a measure of affinity in units of concentration, obtained from inhibition or displacement. What is called melting point is the temperature, or range, at which the solid turns liquid.

Where “and” joins values, the source holds several entries; their conditions need not be identical. Equal values may be shown once. Read-outs that look alike come from different tables or passages of the source.

For `CC(C)C(=O)NC1CCc2c(c3cc4c(cc3n2Cc2cccc(F)c2)OCO4)C1` (stereo not shown) [Example 98, N-[9-(3-Fluoro-benzyl)-6,7,8,9-tetrahydro-5H-1,3-dioxa-9-aza-cyclopenta[b]fluoren-6-yl]-isobutyramide], the melting point is 250 to 255 °C. The molecule also registered an EC50 in data set [1] of 40.8 nM. For the same molecule, the Emax in data set [1] (setting [3]) was 104%. Further, in data set [2], affinity was put at a Ki of 7 nM.

For the molecule `N#Cc1ccc2c(c1)c1c(n2Cc2cccc(F)c2)CCC(NC(=O)C2CC2)C1` (stereo not shown) [Example 193, Cyclopropanecarboxylic acid[6-cyano-9-(3-fluorobenzyl)-2,3,4,9-tetrahydro-1H-carbazol-3-yl]amide], the melting point was 208 to 210 °C and 207 to 209 °C. This molecule also displayed an EC50 in data set [1] of 7.9 nM. Moreover, the Emax in data set [1] (setting [3]) amounted to 92.7%. The affinity in data set [2], expressed as Ki, was 4.3 nM.

For the molecule `CC(C)C(=O)NC1CCc2c(c3cc(Cl)ccc3n2Cc2ccc(C#N)cc2)C1` (stereo not shown) [Example 28], the melting point lay in the range of 158 to 162 °C. The same molecule showed an EC50 in data set [1] of 301 nM. In data set [1] (setting [3]), the Emax turned out to be 64.3%. The molecule further returned a Ki in data set [2] of 12.8 nM.

The molecule `CO/N=C/c1ccc2c(c1)c1c(n2Cc2cccc(F)n2)CC[C@@H](NC(=O)C2CC2)C1` [Example 209] had a melting point of 223 to 225 °C. In addition, the midpoint of the response in data set [1], the EC50, lay at 1.1 nM. For the same molecule, in data set [1] (setting [3]), the Emax was found to be 95.7%. In data set [2], this molecule displayed a Ki of 7.8 nM.

For `CC(C)C(=O)NC1CCc2c(c3cc(C#N)ccc3n2Cc2ccccc2OC(F)(F)F)C1` (stereo not shown) [Example 100, N-[6-Cyano-9-(2-trifluoromethoxy-benzyl)-2,3,4,9-tetrahydro-1H-carbazol-3-yl]-isobutyramide], the melting point fell in the range of 224 to 225 °C. Moreover, in data set [1], the EC50 is 126 nM. The Emax in data set [1] (setting [3]) came to 87.6%. In data set [2], the Ki is 8 nM.

For the molecule `CC(C)C(=O)NC1CCc2c(c3cc(C#N)ccc3n2Cc2ccccc2OC(F)F)C1` (stereo not shown) [Example 97, N-[6-Cyano-9-(2-difluoromethoxy-benzyl)-2,3,4,9-tetrahydro-1H-carbazol-3-yl]-isobutyramide], the melting point lay within 217 to 219 °C. The molecule further registered an EC50 in data set [1] of 32.8 nM. The Emax in data set [1] (setting [3]) was 102%. Besides, the Ki in data set [2] is 4.6 nM.

With `Cc1ccc2c(c1)c1c(n2Cc2ccccc2Cl)CCC(NC(=O)C(C)C)C1` (stereo not shown) [Example 44], the melting point amounted to 194 °C. This molecule also returned an EC50 in data set [1] of 305 nM. Moreover, in data set [1] (setting [3]), the Emax was 71.1%. The same molecule yielded a Ki in data set [2] of 94.2 nM.

Turning to `CCOC(=O)c1ccc2c(c1)c1c(n2Cc2cccc(F)c2)CCC(NC(=O)C(C)C)C1` (stereo not shown) [Example 52], the melting point lay within 226 to 228 °C. For the same molecule, in data set [1], a half-maximal effect (EC50) was put at 5.6 nM. Besides, the Emax in data set [1] (setting [3]) is 73.2%. Moreover, the affinity in data set [2] corresponds to a Ki of 6.1 nM.

In turn, `CC(C)C(=O)N[C@H]1CCc2c(c3cc(C#N)ccc3n2Cc2cccc(F)c2)C1` [Example 124, (S)-N-(6-Cyano-9-(3-fluorobenzyl)-2,3,4,9-tetrahydro-1H-carbazol-3-yl)isobutyramide] gave a melting point of 223 to 225 °C. In data set [1], this molecule returned an EC50 of 1110 nM. The Emax in data set [1] (setting [3]) stood at 49.9%. The molecule further registered an inhibition constant (Ki) in data set [2] of 195 nM.

`CO/N=C/c1ccc2c(c1)c1c(n2Cc2cccc(F)c2)CCC(NC(=O)C(C)C)C1` (stereo not shown) [Example 199, N-[9-(3-Fluoro-benzyl)-6-(methoxyimino-methyl)-2,3,4,9-tetrahydro-1H-carbazol-3-yl]-isobutyramide]: the melting point was in the range of 180 to 182 °C. In addition, in data set [1] (setting [4]), the Emax was determined as 83.6%. In addition, the EC50 in data set [1] (setting [5]) was 1.8 nM. Further, the Ki in data set [2] (setting [6]) was determined as 6.6 nM.

With `CC(C)C(=O)NC1CCc2c(c3ccccc3n2Cc2cccc(F)c2)C1` (stereo not shown) [Example 3], the melting point lay in the range of 170 to 172 °C. In addition, in data set [1], the midpoint of the response, the EC50, lay at 194 nM. For the same molecule, the Emax in data set [1] (setting [3]) was 66.4%. Besides, the affinity in data set [2], expressed as Ki, was 10.1 nM.

The molecule `CCOC(=O)Nc1ccc2c(c1)c1c(n2Cc2cccc(F)c2)CC[C@@H](NC(=O)C(C)C)C1` [Example 189, (R)-[9-(3-Fluoro-benzyl)-6-isobutyrylamino-6,7,8,9-tetrahydro-5H-carbazol-3-yl]-carbamic acid ethyl ester] yielded a melting point of 169 to 171 °C. For the same molecule, in data set [1] (setting [4]), the Emax was determined as 52.9%. In addition, the EC50 in data set [1] (setting [5]) was found to be 1.2 nM. Moreover, the inhibition constant Ki in data set [2] (setting [6]) was found to be 8.3 nM.

`CC(C)C(=O)NC1CCc2c(c3cc(Br)ccc3n2Cc2cccc(F)c2)C1` (stereo not shown) [Example 1, N-[9-(3-Fluorobenzyl)-6-bromo-2,3,4,9-tetrahydro-1H-carbazol-3-yl]isobutyramide]: the melting point was in the range of 177 to 179 °C. Further, in data set [1] (read-out: C2C12 EC50, C2C12 AR/ARE reporter assay, average of n trials), the EC50 was found to be 2.3 nM. Also, in data set [2] (read-out: AR binding Ki, average of n trials), the Ki is 2.6 nM.

Turning to `CC(C)C(=O)NC1CCc2c(c3cc(F)ccc3n2Cc2cccc(F)c2)C1` (stereo not shown) [Example 8], the melting point was 181 to 184 °C. The half-maximal effective concentration (EC50) in data set [1] amounted to 57.8 nM. The Emax in data set [1] (setting [3]) was found to be 108%. The molecule further came in with a Ki in data set [2] of 2.5 nM.

In the case of `CC(C)C(=O)NC1CCc2c(c3cc(C#N)ccc3n2Cc2ncccc2F)C1` (stereo not shown) [Example 182, N-[6-Cyano-9-(3-fluoro-pyridin-2-ylmethyl)-2,3,4,9-tetrahydro-1H-carbazol-3-yl]-isobutyramide], the melting point lay in the range of 213 to 216 °C. Further, the EC50 in data set [1] came to 151 nM. Further, the Emax in data set [1] (setting [3]) was 88.7%. In data set [2], this molecule displayed a Ki of 28.4 nM.

`CC(C)C(=O)NC1CCc2c(c3cc4c(cc3n2Cc2cccc(F)c2)OC(F)(F)O4)C1` (stereo not shown) [Example 99, N-[2,2-Difluoro-9-(3-fluoro-benzyl)-6,7,8,9-tetrahydro-5H-1,3-dioxa-9-aza-cyclopenta[b]fluoren-6-yl]-isobutyramide] gave a melting point of 197 to 199 °C. Besides, it took 9.4 nM to reach a half-maximal effect in data set [1] (EC50). In addition, the Emax in data set [1] (setting [3]) stood at 69%. This molecule returned a Ki in data set [2] of 6.2 nM.

`CC(C)C(=O)NC1CCc2c(c3cc(Cl)ccc3n2Cc2cccc(Cl)c2)C1` (stereo not shown) [Example 22]: the melting point was 187 to 189 °C. In data set [1], the EC50 amounted to 75.7 nM. In addition, the Emax in data set [1] (setting [3]) came to 74.7%. Further, in data set [2], the inhibitory constant (Ki) was 3.5 nM.

For the molecule `CO/N=C/c1ccc2c(c1)c1c(n2Cc2cccc(F)c2)CC[C@@H](NC(=O)C2CC2)C1` [Example 205, (R)-Cyclopropanecarboxylic acid[9-(3-fluoro-benzyl)-6-(1-methoxyimino-methyl)-2,3,4,9-tetrahydro-1H-carbazol-3-yl]-amide], the melting point was 200 to 203 °C. The molecule further gave an EC50 in data set [1] of 0.5 nM. In data set [1] (setting [3]), the Emax came out at 88.4%. The molecule also had a Ki in data set [2] of 3 nM.

On to `CC(C)C(=O)NC1CCc2c(c3cc(C(F)(F)F)ccc3n2Cc2cccc(F)c2)C1` (stereo not shown) [Example 55], for which the melting point was 131 to 138 °C. The EC50 in data set [1] turned out to be 2.5 nM. Besides, the Emax in data set [1] (setting [3]) was 82.9%. The Ki in data set [2] was determined as 11.2 nM.

Turning to `CC(C)C(=O)NC1CCc2c(c3cc(Cl)ccc3n2Cc2ccccc2F)C1` (stereo not shown) [Example 17], the melting point fell in the range of 190 to 193 °C. The molecule further yielded an EC50 in data set [1] of 148 nM. Also, the Emax in data set [1] (setting [3]) worked out at 62.1%. The same molecule yielded a Ki in data set [2] of 8.6 nM.

`CC(C)C(=O)NC1CCc2c(c3cc(F)ccc3n2Cc2ccc(F)cc2)C1` (stereo not shown) [Example 12] showed a melting point of 166 to 168 °C. For the same molecule, a half-maximal effect in data set [1] (EC50) was put at 186 nM. Also, the Emax in data set [1] (setting [3]) turned out to be 50%. Besides, affinity in data set [2] was put at a Ki of 25 nM.

`CC(C)C(=O)N[C@@H]1CCc2c(c3cc(C#N)ccc3n2Cc2cccc(F)c2)C1` (single isomer, unassigned) [Example 123] gave a melting point of 223 to 225 °C. This molecule also came in with an EC50 in data set [1] of 1.8 nM. In addition, the Emax in data set [1] (setting [3]) worked out at 87%. The molecule also yielded a Ki in data set [2] of 1 nM.

`CC(C)C(=O)NC1CCc2c(c3cc(Br)ccc3n2Cc2ccc(F)cc2)C1` (stereo not shown) [Example 39]: the melting point was in the range of 165 to 170 °C. The molecule further came in with an EC50 in data set [1] of 28.9 nM. For the same molecule, the Emax in data set [1] (setting [3]) was found to be 76.1%. The molecule further yielded a Ki in data set [2] of 5.3 nM.
